Tested on: tumor-bearing animal models
Assay: Planar images of tumor-bearing animal models
Type: in vivo
Details: tumor-bearing animal models (FIGS. 5-7, 9, 10)
Method: Imaging studies were performed 12 to 15 days after inoculation. Tumor sizes of approximately 1-1.5 cm were measured. Scintigraphic images were obtained using an M-camera from Siemens Medical Systems (Hoffman Estates, Ill.). The camera was equipped with a low-energy parallel-hole collimator.
Planar scintigraphy was obtained at immediate, 0.5-4 hrs after i.v. injection of ^99mTc—N4-DG, or ^99mTc—N4 (0.3 mCi/rat; 0.1 mg mass/rabbit). To compare the radiotracer accumulation, ROIs (region of interest in counts per pixel) were determined. The ROIs count between tumor and muscle was used to calculate tumor-to-nontumor ratios.

## CC(N)(Cc1ccc(OCCCN2CCCNCCNCCCNCC2)cc1)C(=O)O (stereo not shown) [Example N4-AMT]
  tumor visualization on planar images: visualized clearly
